Measured values published in patent publication US20190352288A1, “MATRIX METALLOPROTEINASE (MMP) INHIBITORS AND METHODS OF USE THEREOF” (Foresee Pharmaceuticals Co., Ltd., priority 2018, published 2019).
Values belong to the molecule of their own block, whether it stands above or below them.

Assays:
Type in all cases: biochemical
recombinant human MMP-7 = target: T1, recombinant human MMP-7 (Homo sapiens, UniProt P09237); assay: MMP selectivity assay, MMP-7; settings: Table 2 selectivity profile
T1 sequence (P09237 95-267): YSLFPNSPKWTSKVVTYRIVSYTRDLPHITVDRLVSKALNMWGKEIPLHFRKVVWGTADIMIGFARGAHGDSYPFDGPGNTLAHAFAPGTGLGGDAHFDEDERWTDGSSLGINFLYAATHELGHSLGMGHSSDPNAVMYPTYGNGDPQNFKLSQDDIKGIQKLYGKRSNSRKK
Procedure: (§1) The inhibitory effect of compounds on the rate of cleaving fluorogenic MMP substrate (Enzo, BML-P128) by recombinant human MMP-12 catalytic domain (Enzo, BML-SE138) was carried out by methods known in the art. Briefly, to each well of a 96-well black opaque plate, all the reagents were sequentially added by pipetting, and the final reaction contained 4 nM of recombinant human MMP-12 catalytic domain, 4 μM of fluorogenic MMP substrate, and various concentrations (0.15 nM to 10,000 nM) of tested compound dilutions in HEPES buffer (pH 7.5) containing 10 mM of CaCl2), 0.01% Brij® 35 (polyoxyethylene (23) lauryl ether), and 0.1 mg/ml of BSA.
(§2) The enzyme and compounds were pre-incubated on a shaker to mix in wells. After an hour of mixing, fluorogenic substrate was added to each well. Reaction without enzyme was used as a blank control in the plate. The plate was then fed into a plate reader to measure fluorescence intensity at Excitation/Emission wavelengths of 340 nm/440 nm every 10 mins for at least 1 hour at 37° C. The IC50 of each compound in MMP-12 inhibition was determined by using a readout obtained at time point 30 minutes.
(§3) The MMP selectivity assay was performed by using other recombinant human MMPs, including MMP-1, MMP-2, MMP-3, MMP-7, MMP-8, MMP-9, MMP-10, MMP-13, and MMP-14. The IC50 of the compounds for the other recombinant human MMPs was determined as described above in Example 1, and are shown in Table 2.

recombinant human MMP-9 = recombinant human MMP-9 (Homo sapiens, UniProt P14780); assay: MMP selectivity assay, MMP-9; settings: Table 2 selectivity profile
recombinant human MMP-9, sequence (P14780 94-707): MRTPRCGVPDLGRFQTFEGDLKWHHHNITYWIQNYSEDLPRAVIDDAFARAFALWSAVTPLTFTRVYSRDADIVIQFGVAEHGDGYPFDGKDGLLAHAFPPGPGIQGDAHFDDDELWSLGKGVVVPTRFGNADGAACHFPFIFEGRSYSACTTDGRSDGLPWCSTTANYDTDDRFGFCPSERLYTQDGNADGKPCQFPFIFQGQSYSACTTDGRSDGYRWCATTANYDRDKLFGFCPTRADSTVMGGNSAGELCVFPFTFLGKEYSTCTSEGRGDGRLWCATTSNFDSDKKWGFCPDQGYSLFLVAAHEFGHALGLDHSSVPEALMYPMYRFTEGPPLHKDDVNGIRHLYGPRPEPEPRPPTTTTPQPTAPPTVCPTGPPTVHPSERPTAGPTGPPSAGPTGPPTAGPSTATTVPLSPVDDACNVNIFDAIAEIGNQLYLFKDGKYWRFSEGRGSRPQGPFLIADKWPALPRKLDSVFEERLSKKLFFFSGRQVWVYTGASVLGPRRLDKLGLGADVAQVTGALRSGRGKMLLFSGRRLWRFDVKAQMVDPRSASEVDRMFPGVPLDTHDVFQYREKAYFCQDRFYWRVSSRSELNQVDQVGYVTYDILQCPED
Procedure: as §1, §2, §3

recombinant human MMP-13 = recombinant human MMP-13 (Homo sapiens, UniProt P45452); assay: MMP selectivity assay, MMP-13; settings: Table 2 selectivity profile
Procedure: as §1, §2, §3

recombinant human MMP-2 = target: T2, recombinant human MMP-2 (Homo sapiens, UniProt P08253); assay: MMP selectivity assay, MMP-2; settings: Table 2 selectivity profile
T2 sequence (P08253 110-660): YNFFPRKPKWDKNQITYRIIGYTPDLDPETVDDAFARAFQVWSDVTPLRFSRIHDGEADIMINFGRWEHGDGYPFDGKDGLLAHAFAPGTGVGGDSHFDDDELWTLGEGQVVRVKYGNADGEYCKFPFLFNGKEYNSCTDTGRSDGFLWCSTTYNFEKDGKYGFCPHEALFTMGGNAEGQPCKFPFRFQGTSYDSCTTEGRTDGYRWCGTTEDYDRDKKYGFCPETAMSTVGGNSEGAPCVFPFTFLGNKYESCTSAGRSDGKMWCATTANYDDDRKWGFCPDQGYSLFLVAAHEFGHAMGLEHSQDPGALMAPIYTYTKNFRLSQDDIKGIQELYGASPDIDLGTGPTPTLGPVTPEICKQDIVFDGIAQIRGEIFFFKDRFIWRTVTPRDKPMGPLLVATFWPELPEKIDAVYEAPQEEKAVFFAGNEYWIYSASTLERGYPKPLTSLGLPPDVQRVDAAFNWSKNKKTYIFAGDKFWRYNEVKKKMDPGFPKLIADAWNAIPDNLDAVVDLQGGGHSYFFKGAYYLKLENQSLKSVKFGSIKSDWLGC
Procedure: as §1, §2, §3

recombinant human MMP-10 = recombinant human MMP-10 (Homo sapiens, UniProt P09238); assay: MMP selectivity assay, MMP-10; settings: Table 2 selectivity profile
recombinant human MMP-10, sequence (P09238 99-476): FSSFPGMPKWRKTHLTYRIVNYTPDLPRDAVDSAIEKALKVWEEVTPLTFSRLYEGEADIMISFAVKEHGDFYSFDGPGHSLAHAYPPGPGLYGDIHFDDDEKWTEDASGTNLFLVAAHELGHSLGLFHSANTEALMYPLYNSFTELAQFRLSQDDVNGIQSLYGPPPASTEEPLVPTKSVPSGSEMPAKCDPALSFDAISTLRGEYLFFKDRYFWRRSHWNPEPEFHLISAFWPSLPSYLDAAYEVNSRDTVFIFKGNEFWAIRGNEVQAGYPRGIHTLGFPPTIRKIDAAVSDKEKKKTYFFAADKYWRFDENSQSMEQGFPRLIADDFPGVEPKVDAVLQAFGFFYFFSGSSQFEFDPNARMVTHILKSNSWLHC
Procedure: as §1, §2, §3

recombinant human MMP-1 = target: T3, recombinant human MMP-1 (Homo sapiens, UniProt P03956); assay: MMP selectivity assay, MMP-1; settings: Table 2 selectivity profile
T3 sequence (P03956 100-469): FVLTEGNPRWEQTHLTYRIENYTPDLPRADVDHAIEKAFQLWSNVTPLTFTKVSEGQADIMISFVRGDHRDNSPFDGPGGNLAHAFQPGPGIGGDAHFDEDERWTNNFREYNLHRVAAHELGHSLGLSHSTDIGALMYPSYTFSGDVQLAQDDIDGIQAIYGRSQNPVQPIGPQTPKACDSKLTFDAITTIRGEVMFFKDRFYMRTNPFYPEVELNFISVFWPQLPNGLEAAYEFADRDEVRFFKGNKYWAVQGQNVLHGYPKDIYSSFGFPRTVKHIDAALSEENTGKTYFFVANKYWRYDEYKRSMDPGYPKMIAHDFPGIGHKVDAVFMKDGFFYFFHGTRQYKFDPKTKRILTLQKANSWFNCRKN
Procedure: as §1, §2, §3

recombinant human MMP-3 = recombinant human MMP-3 (Homo sapiens, UniProt P08254); assay: MMP selectivity assay, MMP-3; settings: Table 2 selectivity profile
recombinant human MMP-3, sequence (P08254 100-477): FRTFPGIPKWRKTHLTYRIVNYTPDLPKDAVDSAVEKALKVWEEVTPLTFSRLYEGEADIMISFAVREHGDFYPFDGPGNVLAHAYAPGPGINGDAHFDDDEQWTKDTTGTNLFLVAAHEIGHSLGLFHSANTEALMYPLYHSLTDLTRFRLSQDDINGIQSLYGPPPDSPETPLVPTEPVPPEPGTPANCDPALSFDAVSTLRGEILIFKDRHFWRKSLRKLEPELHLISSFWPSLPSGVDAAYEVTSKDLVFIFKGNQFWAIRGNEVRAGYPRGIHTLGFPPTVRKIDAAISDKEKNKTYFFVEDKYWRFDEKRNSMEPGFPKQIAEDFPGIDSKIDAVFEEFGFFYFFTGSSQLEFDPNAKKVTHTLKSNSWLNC
Procedure: as §1, §2, §3

recombinant human MMP-8 = recombinant human MMP-8 (Homo sapiens, UniProt P22894); assay: MMP selectivity assay, MMP-8; settings: Table 2 selectivity profile
recombinant human MMP-8, sequence (P22894 101-467): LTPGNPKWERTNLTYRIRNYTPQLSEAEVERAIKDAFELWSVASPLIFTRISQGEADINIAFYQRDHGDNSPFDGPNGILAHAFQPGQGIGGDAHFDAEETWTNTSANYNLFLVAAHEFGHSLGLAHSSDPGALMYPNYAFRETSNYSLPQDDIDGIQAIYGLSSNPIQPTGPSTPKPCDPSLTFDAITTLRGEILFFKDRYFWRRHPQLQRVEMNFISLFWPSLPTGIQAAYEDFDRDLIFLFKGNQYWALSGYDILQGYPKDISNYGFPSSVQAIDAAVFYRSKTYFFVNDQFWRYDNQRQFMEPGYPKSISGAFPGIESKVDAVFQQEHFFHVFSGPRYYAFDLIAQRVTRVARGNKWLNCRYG
Procedure: as §1, §2, §3

recombinant human MMP-14 = recombinant human MMP-14 (Homo sapiens, UniProt P50281); assay: MMP selectivity assay, MMP-14; settings: Table 2 selectivity profile
Procedure: as §1, §2, §3

[1] = target: T4, recombinant human MMP-12 catalytic domain (Homo sapiens, UniProt P39900); assay: MMP-12 inhibitory assay (fluorogenic substrate cleavage); settings: readout at 30 minutes, 37° C., Table 1
T4 construct: recombinant human MMP-12 catalytic domain; purchased Enzo BML-SE138
T4 sequence (P39900 106-268 limits assumed): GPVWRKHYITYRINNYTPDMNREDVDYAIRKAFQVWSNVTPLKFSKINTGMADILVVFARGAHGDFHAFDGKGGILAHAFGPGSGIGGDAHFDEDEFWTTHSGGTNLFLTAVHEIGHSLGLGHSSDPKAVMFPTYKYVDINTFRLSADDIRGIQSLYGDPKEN
Procedure: as §1, §2

Compound: CCC1(c2cnccc2Sc2ccc(OCc3cccc(C)c3)cc2)NC(=O)NC1=O (stereo not drawn) [PC-22]
IC50 (recombinant human MMP-7): > 10 µM
IC50 (recombinant human MMP-9): 1000 to 10000 nM
IC50 (recombinant human MMP-13): 100 to 1000 nM
IC50 (recombinant human MMP-2): 1000 to 10000 nM
IC50 (recombinant human MMP-10): 1000 to 10000 nM
IC50 (recombinant human MMP-1): > 10 µM
IC50 (recombinant human MMP-3): 100 to 1000 nM
IC50 (recombinant human MMP-8): 1000 to 10000 nM
IC50 (recombinant human MMP-14): 1000 to 10000 nM

Compound: Cc1cncc(COc2ccc(Sc3ccncc3C3NC(=O)NC3=O)cc2)c1 (stereo not drawn) [PC-17]
IC50 [1]: 100 to 1000 nM

Compound: CC(C)Oc1cc(COc2ccc(Sc3ccncc3C3NC(=O)NC3=O)cc2)ccn1 (stereo not drawn) [PC-32]
IC50 [1]: 10 to 100 nM

Compound: O=C1NC(=O)C(c2cnccc2Oc2ccc(OCc3cccc(CO)c3)cc2)N1 (stereo not drawn) [PC-25]
IC50 [1]: 10 to 100 nM

Compound: Cc1cc(COc2ccc(Sc3ccncc3C3NC(=O)N(C)C3=O)cc2)ccn1 (stereo not drawn) [PC-41]
IC50 [1]: 100 to 1000 nM

Compound: Cc1cccc(COc2ccc(Sc3ccncc3C3NC(=O)NC3=O)cc2)c1 (stereo not drawn) [PC-2]
IC50 [1]: 10 to 100 nM

Compound: Cc1cc(COc2ccc(Sc3c(C4NC(=O)NC4=O)ncn3C)cc2)ccn1 (stereo not drawn) [OC-14]
IC50 [1]: 10 to 100 nM

Compound: Cc1cccc(COc2ccc(Sc3cc[n+](O)cc3C3NC(=O)NC3=O)cc2)c1 (stereo not drawn) [OC-3]
IC50 [1]: 10 to 100 nM

Compound: Cc1cccc(COc2ccc(Sc3cnn(C)c3C3NC(=O)NC3=O)cc2)c1 (stereo not drawn) [OC-5]
IC50 [1]: 10 to 100 nM

Compound: Cc1cccc(COc2ccc(Sc3cnccc3C3NC(=O)NC3=O)cc2)c1 (stereo not drawn) [PC-4]
IC50 [1]: 10 to 100 nM

Compound: Cc1cccc(COc2ccc(Sc3ncoc3C3NC(=O)NC3=O)cc2)c1 (stereo not drawn) [OC-10]
IC50 [1]: 10 to 100 nM

Compound: CNC(=O)c1cccc(COc2ccc(Sc3ccncc3C3NC(=O)NC3=O)cc2)c1 (stereo not drawn) [PC-29]
IC50 [1]: 10 to 100 nM

Compound: O=C1NC(=O)C(c2ccncc2Sc2ccc(OCc3ccc(CO)cc3)cc2)N1 (stereo not drawn) [PC-14]
IC50 [1]: 10 to 100 nM

Compound: Cc1cccc(COc2ccc([S+]([O-])c3ccccc3C3NC(=O)NC3=O)cc2)c1 (stereo not drawn) [OC-2]
IC50 [1]: 100 to 1000 nM

Compound: NC(=O)c1ccc(COc2ccc(Sc3ccncc3C3NC(=O)NC3=O)cc2)cc1 (stereo not drawn) [PC-37]
IC50 [1]: 100 to 1000 nM

Compound: NC(=O)c1cncc(COc2ccc(Sc3ccncc3C3NC(=O)NC3=O)cc2)c1 (stereo not drawn) [PC-34]
IC50 [1]: 10 to 100 nM

Compound: Cc1cccc(COc2ccc(Oc3ccncc3C3NC(=O)NC3=O)cc2)c1 (stereo not drawn) [PC-26]
IC50 [1]: 10 to 100 nM

Results, then the molecule that gave them:

IC50 (recombinant human MMP-7): 1 to 10 µM
IC50 (recombinant human MMP-9): 100 to 1000 nM
IC50 (recombinant human MMP-13): 10 to 100 nM
IC50 (recombinant human MMP-2): 100 to 1000 nM
IC50 (recombinant human MMP-10): 100 to 1000 nM
IC50 (recombinant human MMP-1): > 10 µM
IC50 (recombinant human MMP-3): 100 to 1000 nM
IC50 (recombinant human MMP-8): 10 to 100 nM
IC50 (recombinant human MMP-14): 100 to 1000 nM
Compound: Cc1cc(COc2ccc(Sc3ccsc3C3NC(=O)NC3=O)cc2)ccn1 (stereo not drawn) [TC8]

IC50 (recombinant human MMP-7): > 10 µM
IC50 (recombinant human MMP-9): 1000 to 10000 nM
IC50 (recombinant human MMP-13): 100 to 1000 nM
IC50 (recombinant human MMP-2): 1000 to 10000 nM
IC50 (recombinant human MMP-10): 1000 to 10000 nM
IC50 (recombinant human MMP-1): > 10 µM
IC50 (recombinant human MMP-3): 1000 to 10000 nM
IC50 (recombinant human MMP-8): 1000 to 10000 nM
IC50 (recombinant human MMP-14): > 10000 nM
Compound: Cc1cc(COc2ccc(Sc3ccncc3C3NC(=O)NC3=O)cc2C)ccn1 (stereo not drawn) [PC-48]

IC50 [1]: 100 to 1000 nM
Compound: CCOc1cccc(COc2ccc(Sc3ccsc3C3NC(=O)NC3=O)cc2)c1 (stereo not drawn) [TC2]

IC50 [1]: 10 to 100 nM
Compound: Cc1cc(COc2ccc(Sc3ccncc3C3NC(=O)NC3=O)cc2Cl)ccn1 (stereo not drawn) [PC-49]

IC50 [1]: 10 to 100 nM
Compound: Cc1cc(CN(C)c2ccc(Sc3ccncc3C3NC(=O)NC3=O)cc2)ccn1 (stereo not drawn) [PC-58]

IC50 [1]: 10 to 100 nM
Compound: Cc1cc(COc2ccc(Sc3cc(C)ncc3C3NC(=O)NC3=O)cc2)ccn1 (stereo not drawn) [PC-45]

IC50 [1]: 10 to 100 nM
Compound: Cc1cc(CNc2ccc(Sc3ccncc3C3NC(=O)NC3=O)cc2)ccn1 (stereo not drawn) [PC-56]

IC50 [1]: 10 to 100 nM
Compound: Cc1cc(COc2ccc(Sc3ccncc3C3NC(=O)NC3=O)c(C)c2)ccn1 (stereo not drawn) [PC-42]

IC50 [1]: 10 to 100 nM
Compound: O=C1NC(=O)C(c2ccncc2Sc2ccc(OCc3ccnc(CO)c3)cc2)N1 (stereo not drawn) [PC-53]

IC50 [1]: 10 to 100 nM
Compound: NC(=O)c1cc(COc2ccc(Sc3ccncc3C3NC(=O)NC3=O)cc2)ccn1 (stereo not drawn) [PC-60]
